Measured values published in article PMC9325269, “New Polymethoxyflavones from Hottonia palustris Evoke DNA Biosynthesis-Inhibitory Activity in An Oral Squamous Carcinoma (SCC-25) Cell Line” (Molecules, 2022).
Where two headings read alike, the source gives them in different places.

Experiments:
[1] = tested on: human tongue squamous carcinoma cells SCC-25; experiment: MTT cell viability assay, SCC-25 cells; format: cell-based; conditions: read-out: IC50 of viability, SCC-25
Experimental: (§1) The cell viability and proliferation assays were performed on the human tongue squamous cell line (SCC-25). The cells were obtained from ATCC (CRL-1628, American Type Culture Collection, Manassas, VA, USA) and cultured in a 1:1 mixture of DMEM (Dulbecco’s minimal essential medium) and Ham’s F12 medium (Thermo Fisher Scientific, Waltham, MA, USA, 31330038) supplemented with 400 ng/mL hydrocortisone (Sigma-Aldrich, Burlington, MA, USA, H0135), 10% FBS (fetal bovine serum, Thermo Fisher Scientific, Waltham, MA, USA, 10270106), and penicillin–streptomycin solution (Thermo Fisher Scientific, Waltham, MA, USA, 15140122). Furthermore, for the cytotoxicity assay, human skin fibroblasts (CCD25Sk) cultured in DMEM (Thermo Fisher Scientific, Waltham, MA, USA, 41966029) supplemented with 10% FBS and penicillin-streptomycin solution were used. The cells were incubated at 37 °C in the air with 5% CO2. […] MTT (M5655), SDS (L3771), and cisplatin (cPT), which was used as a positive control (P4394), were purchased from Sigma-Aldrich (Burlington, MA, USA).
(§2) The cell viability assay leans on the transformation of yellow tetrazolinum bromide MTT solution to the purple derivative of formazan via succinate dehydrogenase, an enzyme present in viable cells. Cells were cultured (1 × 10^4 per well) on a 96-well plate to receive 70% of their confluency. After 24 h and 48 h of incubation with the studied samples (prepared as DMSO solutions directly before the assay), the cells were washed with PBS (phosphate-buffered saline). Subsequently, the MTT solution was added, and the plates were incubated at 37 °C for 2 h. Then, formazan crystals were dissolved in 200 μL of DMSO with Sorensen’s glycine buffer and were shacked for 10 min.

[2] = tested on: normal fibroblasts; experiment: MTT cell viability assay, normal fibroblasts; format: cell-based, human; conditions: read-out: IC50 of viability, Fibroblasts
Experimental: as §1, §2

[3] = tested on: DNA biosynthesis in SCC-25 cells; experiment: [3H]-thymidine incorporation (DNA biosynthesis / proliferation) assay; format: cell-based; conditions: Homo sapiens; 48 h treatment of SCC-25 cells (as stated in abstract); read-out: DNA biosynthesis-inhibitory activity IC50
Experimental: Considering this fact, an evaluation determining whether the cytotoxicity of the samples was the result of their influence on the biosynthesis of cell DNA was carried out by assessing the capability of intracellular thymidine incorporation.
The proliferation of the tested cells was estimated as [^3H]-thymidine incorporation into the DNA of the cells treated with the studied samples [40]. Firstly, cells (1 × 10^4 per well) were placed in 24-well plates and were allowed to adhere for 24 h. […] After incubation for 24 h and 48 h at 37 °C, the cells were rinsed with PBS and solubilized with 1 mL of 0.1 M NaOH (sodium hydroxide) containing 1% SDS (sodium dodecyl sulfate). Then, radioactivity was recorded in a Liquid Scintillation Analyzer (Perkin-Elmer, Waltham, MA, USA) after correction to 9 mL with scintillation liquid.

[4] = tested on: SCC-25 squamous carcinoma cells; experiment: Morphological profile of SCC-25 cells (microphotographs); format: cell-based, human; conditions: 24 h and 48 h; extracts 100 µg/mL, compounds 100 µM
[5] = tested on: melanoma cells; conditions: cited from earlier work
[6] = Homo sapiens, SCC-25, 24 h, MTT, compounds 6.25–200 µM
[7] = Homo sapiens, SCC-25, 48 h, MTT, compounds 6.25–200 µM
[8] = 24 h, MTT, compounds 6.25–200 µM
[9] = 48 h, MTT, compounds 6.25–200 µM

Structure (SMILES): O=C(CC(=O)c1ccccc1)c1ccccc1 [Compound 1, 1,3-diphenylpropane-1,3-dione]
- IC50 ([1]; Homo sapiens, SCC-25, 24 h): 40 ± 1.89 µM
- IC50 ([1]; Homo sapiens, SCC-25, 48 h): 29.1 ± 1.45 µM
- IC50 ([2]; Homo sapiens, Fibroblast, 24 h): > 200 µM
- IC50 ([2]; Homo sapiens, Fibroblast, 48 h): > 200 µM
- IC50 [3]: 29.1 ± 1.45 µM
- morphological profile, cell adhesion and number of cells versus untreated [4]: decreased the number of cells
- cell cycle effect [5]: cell-cycle deregulation

Structure (SMILES): O=c1cc(-c2ccccc2)oc2cccc(O)c12 [Compound 2, 5-hydroxy-2-phenyl-4H-chromen-4-one]
- IC50 [1, 6]: > 200 µM
- IC50 [1, 7]: > 200 µM

Structure (SMILES): COc1ccccc1-c1cc(=O)c2c(O)cccc2o1 [Compound 3, 5-hydroxy-2-(2-methoxyphenyl)-4H-chromen-4-one]
- IC50 ([1]; Homo sapiens, SCC-25, 24 h): > 200 µM
- IC50 ([1]; Homo sapiens, SCC-25, 48 h): > 200 µM

Structure (SMILES): COc1cccc(OC)c1-c1cc(=O)c2c(O)cccc2o1 [Compound 4, 5-hydroxy-2-(2,6-dimethoxyphenyl)-4H-chromen-4-one]
- IC50 ([1]; Homo sapiens, SCC-25, 24 h): > 200 µM
- IC50 ([1]; Homo sapiens, SCC-25, 48 h): > 200 µM

Structure (SMILES): COc1ccc(OC)c(-c2cc(=O)c3c(O)cccc3o2)c1OC [Compound 5, 5-hydroxy-2-(2,3,6-trimethoxyphenyl)-4H-chromen-4-one]
- IC50 ([1]; Homo sapiens, SCC-25, 24 h): > 200 µM
- IC50 ([1]; Homo sapiens, SCC-25, 48 h): > 200 µM

Structure (SMILES): COc1cccc(O)c1-c1cc(=O)c2c(O)cccc2o1 [Compound 6, 5-hydroxy-2-(2-hydroxy-6-methoxyphenyl)-4H-chromen-4-one]
- IC50 [1, 6]: > 200 µM
- IC50 [1, 7]: > 200 µM

Structure (SMILES): COc1ccc(O)c(-c2cc(=O)c3c(O)cccc3o2)c1OC [Compound 7, 5-hydroxy-2-(6-hydroxy-2,3-dimethoxyphenyl)-4H-chromen-4-one]
- IC50 ([1]; Homo sapiens, SCC-25, 24 h): 78.2 ± 3.25 µM
- IC50 ([1]; Homo sapiens, SCC-25, 48 h): 40.6 ± 1.65 µM
- IC50 ([2]; Homo sapiens, Fibroblast, 24 h): > 200 µM
- IC50 ([2]; Homo sapiens, Fibroblast, 48 h): > 200 µM
- IC50 [3]: 40.6 ± 1.65 µM
- morphological profile, cell adhesion and number of cells versus untreated [4]: decreased the number of cells

Structure (SMILES): N.N.[Cl][Pt][Cl] [cPT, cisplatin, reference compound]
- IC50 [1, 8]: 26.1 ± 1.03 µM
- IC50 [1, 9]: 7.58 ± 0.37 µM
- IC50 [2, 8]: > 200 µM
- IC50 [2, 9]: 40.5 ± 2.01 µM
- morphological profile, cell adhesion and number of cells versus untreated [4]: decreased the number of cells
